Assay results taken from article PMC12606464, “Investigating NFE2L1 activators for targeted protein aggregate clearance: a follow-up study” (RSC Medicinal Chemistry, 2025).
Marks after values point to notes of the source that are not given here.

Experiments:
HEK293 cells = test: alamarBlue cytotoxicity assessment in HEK293 cells; assay type: cell-based, human; settings: 16 h
Protocol: Figure S2: Concentration-dependent cytotoxicity assessment of RUN compounds.
HEK293 cells were treated for 16 hours with increasing concentrations of RUN compounds (1.25 µM; 2.5 µM; 5; 7.5 and 10 µM) or DMSO (negative control). Cell viability was determined using the alamarBlue assay following the protocol of Riss.(1) Data are presented as means ± SD from three independent experiments (n = 3). Statistical analysis was done using repeated measures one-way ANOVA with Geisser–Greenhouse correction, followed by Dunnett’s multiple comparisons test. *p<0.05. Detailed results of the analysis are shown in […]
(1 picture or pasted object on this page, not shown here)
(§1) 2 Biology Experimental Procedures
(§2) Safety statement: No unexpected or unusually high safety hazards were encountered. […]
Cell lines were sourced from the ATCC (USA) and/or ECACC (UK), namely HCT116 (human colorectal carcinoma), ATCC CCL-247 (RRID:CVCL_0291), HEK-293 (human embryonic kidney), ATCC CRL-1573 (RRID:CVCL_0045), SH-SY5Y (human neuroblastoma), ATCC CRL-2266 (RRID:CVCL_0019). The characteristics of DDI2 knockout cells derived from HCT116 cells have been described previously (Sedlacek et al., 2025). All cell lines were tested for mycoplasma contamination. Most of the cell lines were cultured in Dulbecco's Modified Eagle Medium (DMEM) enriched with 10% fetal bovine serum (FBS) and 2 mM L-glutamine, under standard conditions of 37 °C with 5% CO₂. DNA transfection was performed with Lipofectamine 2000, following the manufacturer's instructions. Transgenic cells were then selected with either G418 (400 µg/mL) or hygromycin B (450 µg/mL), based on the selection marker encoded by the plasmid used. […]

NFE2L1 pathway = test: 3×PSMA4-ARE-LUC dual luciferase reporter assay in HEK293 cells; assay type: cell-based, human; settings: Homo sapiens; 5 μM, 16 h, HEK293, luminescence relative to DMSO-treated cells; read-out: NFE2L1 activation [5 μM]
Text: In our previous work,[43] we developed a library of NFE2L1 stimulators using a cell-based luciferase reporter assay. This system was based on three tandem copies of the antioxidant response element (ARE) derived from the NFE2L1 target gene proteasome subunit alpha type-4 (3xPSMA4, PSMA4-ARE-LUC). It was designed to detect the proteasome “bounce-back” response induced by proteasome inhibitors such as MG132 or bortezomib.[22,43,45,46] The reporter assay was adapted to a 384-well format and used to evaluate a new set of RUN compounds designed around the structural framework of the RUN-47 activator. We focused on identifying compounds that increased the 3×PSMA4-ARE-LUC signal (Fig. 1A), while simultaneously assessing cytotoxicity (see the SI, Fig. S2). […] In contrast, thiourea- and urea-containing derivatives generally produced only weak to intermediate responses, rarely exceeding a fold change of 7.
Fig. 1 (A) Targeted library screening of RUN compounds using the 3×PSMA4-ARE-LUC dual reporter assay in HEK293 cells. Cells were exposed to RUN compounds (5 μM) for 16 hours, and luciferase activity was measured. Data are presented as the mean ± SD from three independent experiments (n = 3). Results are shown as a fold change in luminescence relative to DMSO-treated cells. Selected hit compounds are highlighted in distinct colours. (B) RUN-89 specifically activates the NFE2L1 pathway. The DDI2 knockout (KO) and parental (WT) HCT116 cells were transfected with the 3×PSMA4-ARE-LUC reporter and treated with 0.5 μM bortezomib (BTZ) and 5 μM RUN-89 for 16 hours. Data are presented as the Geomean ± GeoSD of three independent experiments (n = 3). Statistical analysis was performed on log2-transformed values using two-way repeated-measures ANOVA followed by Šídak's multiple comparison test. (C) RUN-89 selectively triggers downstream signaling events associated with NFE2L1 gene expression. HEK293 cells were transfected with lipid nanoparticles (LNPs) carrying siRNAs targeting NFE2L1 or NFE2L2. LNPs formulated with non-targeting siRNA served as a negative control. Following 24 hours of incubation, cells were treated with 7.5 μM RUN-89 or DMSO (vehicle) for an additional 16 hours. Expression of the proteasomal subunit gene PSMC4 was then quantified by RT-qPCR. Data are shown as the Geomean ± GeoSD from three independent biological replicates (n = 3). Log2-transformed data were analyzed using two-way repeated-measures ANOVA with the Geisser–Greenhouse correction, followed by Tukey's multiple comparison test with individual variances computed for each comparison. Additional results for NFE2L1, NFE2L2, PSMB7, and PSMD12 are presented in SI Fig. S10.
Figure S1: Concentration–response of luciferase cell-based assay (PSMA4-ARE-luc2P reporter) on treatment with RUN-81, RUN-89, and RUN-94. Concentration is plotted on the X-axis. Dose–response relationships were analyzed using a four-parameter logistic curve (4PL), or a bell-shaped dose-response curve, both with weighting 1/Y^2. Dotted lines represent 95% confidence bands. Calculated EC₅₀ values, curve parameters, and asymmetrical confidence intervals are summarized in the accompanying table . Data are presented as mean ± SD from four independent experiments (n=4).
as §1, §2
Most of the cell lines were cultured in Dulbecco's Modified Eagle Medium (DMEM) enriched with 10% fetal bovine serum (FBS) and 2 mM L-glutamine, under standard conditions of 37 °C with 5% CO₂. DNA transfection was performed with Lipofectamine 2000, following the manufacturer's instructions. Transgenic cells were then selected with either G418 (400 µg/mL) or hygromycin B (450 µg/mL), based on the selection marker encoded by the plasmid used. Cell viability was evaluated using the […]

[1] = HEK293, alamarBlue, concentration not given

| SMILES | Tox [% of ctrl.] (HEK293 cells; [1]) | fold induction at 5 µM (NFE2L1 pathway) | Tox [% of ctrl.] (HEK293 cells; human) |
| --- | --- | --- | --- |
| CCOC(=O)CNC(=O)N1C/C(=C\c2ccc(OC)c(OC)c2)C(=O)/C(=C/c2ccc(OC)c(OC)c2)C1 [RUN-74] | 81% of ctrl. | 7.1 |  |
| COc1ccc(/C=C2\CN(C(=O)CCN(C)C)C/C(=C\c3ccc(OC)c(OC)c3)C2=O)cc1OC.O=C(O)C(F)(F)F [RUN-114] | 92% of ctrl. | 3.1 |  |
| COc1ccc(/C=C2\CN(C(=O)CCCN(C)C)C/C(=C\c3ccc(OC)c(OC)c3)C2=O)cc1OC.O=C(O)C(F)(F)F [RUN-106] | 75% of ctrl. | 2.8 |  |
| COc1cccc(NC(=O)N2C/C(=C\c3ccc(OC)c(OC)c3)C(=O)/C(=C/c3ccc(OC)c(OC)c3)C2)c1 [RUN-76] | 88% of ctrl. | 6.8 |  |
| COc1ccc(/C=C2\CN(C(=O)C3CCCN3)C/C(=C\c3ccc(OC)c(OC)c3)C2=O)cc1OC (stereo not shown) [RUN-113] | 94% of ctrl. | 3.8 |  |
| COc1ccc(/C=C2\CN(C(=O)CN)C/C(=C\c3ccc(OC)c(OC)c3)C2=O)cc1OC [RUN-85] |  | 2.7 |  |
| COc1ccc(/C=C2/C(=O)/C(=C/c3ccc(OC)c(OC)c3)C3CCC2N3Cc2ccc(C#N)cc2)cc1OC [RUN-80] |  | 2 | 98% of ctrl. |
| COc1ccc(/C=C2\CC(NC(=O)CCN(C)C)C/C(=C\c3ccc(OC)c(OC)c3)C2=O)cc1OC (stereo not shown) [RUN-101] | 97% of ctrl. | 2 |  |
| CCN(CC)CC(=O)N1C/C(=C\c2ccc(OC)c(OC)c2)C(=O)/C(=C/c2ccc(OC)c(OC)c2)C1.O=C(O)C(F)(F)F [RUN-116] | 78% of ctrl. | 3.1 |  |
| COc1ccc(/C=C2\CC(NC(=O)Cc3c[nH]cn3)C/C(=C\c3ccc(OC)c(OC)c3)C2=O)cc1OC (stereo not shown) [RUN-95] | 96% of ctrl. | 2 |  |
| COc1ccc(/C=C2\CN(C(=O)[C@@H]3CCC(=O)N3)C/C(=C\c3ccc(OC)c(OC)c3)C2=O)cc1OC [RUN-110] | 85% of ctrl. | 1.8 |  |
| COc1ccc(/C=C2\CC(NC(=O)CN)C/C(=C\c3ccc(OC)c(OC)c3)C2=O)cc1OC.O=C(O)C(F)(F)F (stereo not shown) [RUN-92] | 90% of ctrl. | 1.6 |  |
| COc1ccc(/C=C2\CN(C(=O)CN3CCOCC3)C/C(=C\c3ccc(OC)c(OC)c3)C2=O)cc1OC.O=C(O)C(F)(F)F [RUN-112] | 81% of ctrl. | 6.6 |  |
| COc1ccc(/C=C2\CN(C(=O)Cn3ccnc3)C/C(=C\c3ccc(OC)c(OC)c3)C2=O)cc1OC [RUN-111] | 78% of ctrl. | 2.7 |  |
| COc1ccc(/C=C2\CN(C(=S)NCCN3CCOCC3)C/C(=C\c3ccc(OC)c(OC)c3)C2=O)cc1OC [RUN-77] | 84% of ctrl. | 2.5 |  |
| COc1ccc(/C=C2\CC(NC(=O)C34CCN(CC3)CC4)C/C(=C\c3ccc(OC)c(OC)c3)C2=O)cc1OC (stereo not shown) [RUN-87] |  | 1 | 101% of ctrl. |
| COc1ccc(/C=C2\CC(NC(=O)C3CCC(=O)N3)C/C(=C\c3ccc(OC)c(OC)c3)C2=O)cc1OC (stereo not shown) [RUN-97] | 99% of ctrl. | 1.6 |  |

| SMILES | Tox [% of ctrl.] (HEK293 cells; [1]) | fold induction at 5 µM (NFE2L1 pathway) | Tox [% of ctrl.] (HEK293 cells; human) |
| --- | --- | --- | --- |
| COc1ccc(/C=C2\CC(NC(=O)Cn3ccnc3)C/C(=C\c3ccc(OC)c(OC)c3)C2=O)cc1OC (stereo not shown) [RUN-99] | 103% of ctrl. | 1.6 |  |
| COc1ccc(/C=C2\CC(NC(=O)CN3CCN(C)CC3)C/C(=C\c3ccc(OC)c(OC)c3)C2=O)cc1OC (stereo not shown) [RUN-90] | 87% of ctrl. | 2.8 |  |
| COc1ccc(/C=C2\CC(NC(=O)c3ncccc3C)C/C(=C\c3ccc(OC)c(OC)c3)C2=O)cc1OC (stereo not shown) [RUN-93] | 75% of ctrl. | 11.9 |  |
| COc1ccc(/C=C2\CN(C(=O)CCCN)C/C(=C\c3ccc(OC)c(OC)c3)C2=O)cc1OC [RUN-115] | 85% of ctrl. | 1.8 |  |
| COc1ccc(/C=C2\CC(NC(=O)CCCN)C/C(=C\c3ccc(OC)c(OC)c3)C2=O)cc1OC.O=C(O)C(F)(F)F (stereo not shown) [RUN-100] | 100% of ctrl. | 1.2 |  |
| COc1ccc(/C=C2\CN(C(=O)Cc3c[nH]cn3)C/C(=C\c3ccc(OC)c(OC)c3)C2=O)cc1OC [RUN-109] | 78% of ctrl. | 4.3 |  |
| COc1ccc(/C=C2\CN(C(=O)C3CCCC3)C/C(=C\c3ccc(OC)c(OC)c3)C2=O)cc1OC [RUN-103] | 80% of ctrl. | 9.4 |  |
| COc1ccc(/C=C2\CC(NC(=O)CN3CCOCC3)C/C(=C\c3ccc(OC)c(OC)c3)C2=O)cc1OC.O=C(O)C(F)(F)F (stereo not shown) [RUN-98] | 102% of ctrl. | 2.1 |  |
| COc1ccc(/C=C2/C(=O)/C(=C/c3ccc(OC)c(OC)c3)C3CCC2N3CCN2CCOCC2)cc1OC [RUN-79] |  | 0.9 | 104% of ctrl. |
| COc1ccc(/C=C2/C(=O)/C(=C/c3ccc(OC)c(OC)c3)C3CCC2N3)cc1OC [RUN-78] |  | 1.4 | 89% of ctrl. |
| COc1ccc(/C=C2\CC(NC(=O)CCCN(C)C)C/C(=C\c3ccc(OC)c(OC)c3)C2=O)cc1OC (stereo not shown) [RUN-91] | 95% of ctrl. | 1.6 |  |
| COc1ccc(/C=C2\CN(C(=O)CN3CCN(C)CC3)C/C(=C\c3ccc(OC)c(OC)c3)C2=O)cc1OC [RUN-105] | 78% of ctrl. | 4.5 |  |
| COc1ccc(/C=C2\CN(C(=O)C34CCN(CC3)CC4)C/C(=C\c3ccc(OC)c(OC)c3)C2=O)cc1OC [RUN-83] |  | 1.5 | 87% of ctrl. |
| CCOC(=O)CCNC(=O)N1C/C(=C\c2ccc(OC)c(OC)c2)C(=O)/C(=C/c2ccc(OC)c(OC)c2)C1 [RUN-75] | 82% of ctrl. | 6.8 |  |
| COc1ccc(/C=C2\CN(C(=O)CCN)C/C(=C\c3ccc(OC)c(OC)c3)C2=O)cc1OC [RUN-117] | 83% of ctrl. | 1 |  |
| COc1ccc(/C=C2\CN(C(=O)c3ncccc3C)C/C(=C\c3ccc(OC)c(OC)c3)C2=O)cc1OC [RUN-107] | 73%* % of ctrl. | 5 |  |
| COc1ccc(/C=C2\CN(C(=O)c3ccccn3)C/C(=C\c3ccc(OC)c(OC)c3)C2=O)cc1OC [RUN-108] | 83% of ctrl. | 0.9 |  |
